Target: T1, SIRT1 (Homo sapiens, UniProt Q96EB6)
T1 sequence (Q96EB6 1-747): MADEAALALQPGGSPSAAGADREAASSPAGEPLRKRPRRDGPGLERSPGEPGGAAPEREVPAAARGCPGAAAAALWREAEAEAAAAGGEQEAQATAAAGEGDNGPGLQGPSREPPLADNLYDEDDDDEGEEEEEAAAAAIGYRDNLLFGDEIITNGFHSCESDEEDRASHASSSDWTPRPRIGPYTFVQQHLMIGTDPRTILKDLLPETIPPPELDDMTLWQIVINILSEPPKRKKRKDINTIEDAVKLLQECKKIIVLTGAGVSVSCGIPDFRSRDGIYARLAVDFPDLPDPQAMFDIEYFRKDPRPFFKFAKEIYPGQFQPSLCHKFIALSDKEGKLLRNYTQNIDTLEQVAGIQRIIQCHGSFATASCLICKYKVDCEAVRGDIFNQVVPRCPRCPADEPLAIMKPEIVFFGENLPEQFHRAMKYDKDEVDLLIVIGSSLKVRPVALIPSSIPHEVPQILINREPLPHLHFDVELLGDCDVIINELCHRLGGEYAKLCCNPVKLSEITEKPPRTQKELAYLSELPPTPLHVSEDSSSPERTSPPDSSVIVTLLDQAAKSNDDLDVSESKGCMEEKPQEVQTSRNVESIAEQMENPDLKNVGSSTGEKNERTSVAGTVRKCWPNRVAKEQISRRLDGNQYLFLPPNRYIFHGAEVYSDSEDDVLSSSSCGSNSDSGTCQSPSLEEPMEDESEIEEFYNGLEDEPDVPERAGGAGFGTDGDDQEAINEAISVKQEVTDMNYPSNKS
Test: Mass spectrometry based assay of SIRT1 activity (deacetylation of a p53-based acetylated peptide)
Type: biochemical
Settings: 10 nM SIRT1, 0.5 μM peptide substrate, 120 μM βNAD+, 25 minutes at 25° C.; for Emax: read-out: % FOLD ACT. (percent maximum fold activation)
Source text: A mass spectrometry based assay was used to identify modulators of SIRT1 activity. The mass spectrometry based assay utilizes a peptide having 20 amino acid residues as follows: Ac-EE-K(biotin)-GQSTSSHSK(Ac)NleSTEG-K(5TMR)-EE-NH2 (SEQ ID NO: 1) wherein K(Ac) is an acetylated lysine residue and Nle is a norleucine. The peptide is labeled with the fluorophore 5TMR (excitation 540 nm/emission 580 nm) at the C-terminus. The sequence of the peptide substrate is based on p53 with several modifications. In addition, the methionine residue naturally present in the sequence was replaced with the norleucine because the methionine may be susceptible to oxidation during synthesis and purification.
The mass spectrometry assay is conducted as follows: 0.5 μM peptide substrate and 120 μM βNAD^+ is incubated with 10 nM SIRT1 for 25 minutes at 25° C. in a reaction buffer (50 mM Tris-acetate pH 8, 137 mM NaCl, 2.7 mM KCl, 1 mM MgCl2, 5 mM DTT, 0.05% BSA). Test compounds may be added to the reaction as described above. […] After the 25 minute incubation with SIRT1, 10 μL of 10% formic acid is added to stop the reaction. Reactions are sealed and frozen for later mass spec analysis. Determination of the mass of the substrate peptide allows for precise determination of the degree of acetylation (i.e. starting material) as compared to deacetylated peptide (product).
A control for inhibition of sirtuin activity is conducted by adding 1 μL of 500 mM nicotinamide as a negative control at the start of the reaction (e.g., permits determination of maximum sirtuin inhibition). A control for activation of sirtuin activity is conducted using 10 nM of sirtuin protein, with 1 μL of DMSO in place of compound, to determine the amount of deacetylation of the substrate at a given timepoint within the linear range of the assay. This timepoint is the same as that used for test compounds and, within the linear range, the endpoint represents a change in velocity.
For the above assay, SIRT1 protein was expressed and purified as follows. […] The protein was expressed by induction with 1 mM IPTG as an N-terminal His-tag fusion protein at 18° C. overnight and harvested at 30,000×g. Cells were lysed with lysozyme in lysis buffer (50 mM Tris-HCl, 2 mM Tris[2-carboxyethyl]phosphine (TCEP), 10 μM ZnCl2, 200 mM NaCl) and further treated with sonication for 10 min for complete lysis. The protein was purified over a Ni-NTA column (Amersham) and fractions containing pure protein were pooled, concentrated and run over a sizing column (Sephadex S200 26/60 global). The peak containing soluble protein was collected and run on an Ion-exchange column (MonoQ). Gradient elution (200 mM-500 mM NaCl) yielded pure protein. This protein was concentrated and dialyzed against dialysis buffer (20 mM Tris-HCl, 2 mM TCEP) overnight. The protein was aliquoted and frozen at −80° C. until further use.
Sirtuin modulating compounds that activated SIRT1 were identified using the assay described above and are shown below in Table 1 for compounds of Formula (III)). The EC1.5 values represent the concentration of test compounds that result in 150% activation of SIRT1. The EC1.5 values for the activating compounds in Table 1 are represented by A (EC1.5<10.0 μM), B (EC1.5 10-25 μM), C (EC1.5>25 μM). The percent maximum fold activation is represented by A (Fold activation>200%) or B (Fold Activation<200%); “NT” means not tested; “ND” mean not determinable.

Row | SMILES | EC1.5 (concentration of test compound that results in 150% activation of SIRT1) | Emax [%]
1 | O=C(Nc1ncc(CN2CCCC2)s1)C1CCCc2ccc(-c3cccc(C(F)(F)F)c3)nc21 (stereo not shown) [Compound 296] | C (EC1.5>25 μM) | 
2 | O=C(NC1CCCc2ccc(-c3ccc(N4CCCC4)cc3)nc21)c1cnccn1 (stereo not shown) [Compound 259] | C (EC1.5>25 μM) | 
3 | O=C(NC1CCCc2ccc(-c3cccc(C(F)(F)F)c3F)nc21)c1cnccn1 (stereo not shown) [Compound 256] | C (EC1.5>25 μM) | 
4 | O=C(Nc1ccnc(N2CCCC2)c1)C1CCCc2ccc(-c3cccc(C(F)(F)F)c3F)nc21 (stereo not shown) [Compound 273] | C (EC1.5>25 μM) | 
5 | O=C(Nc1ccncc1)C1CCCc2ccc(-c3cccc(C(F)(F)F)c3)nc21 (stereo not shown) [Compound 286] | C (EC1.5>25 μM) | 
6 | O=C(Nc1nccs1)C1CCCc2ccc(-c3cccc(C(F)(F)F)c3)nc21 (stereo not shown) [Compound 279] | C (EC1.5>25 μM) | 
7 | O=C(NC1CCCc2ccc(-c3cccc(C(F)(F)F)c3)nc21)c1ccnc(OCC(O)CO)c1 (stereo not shown) [Compound 244] | A (EC1.5<10.0 μM) | > 200
8 | Cc1nc(NC(=O)C2CCCc3ccc(-c4cccc(C(F)(F)F)c4)nc32)sc1C (stereo not shown) [Compound 281] | C (EC1.5>25 μM) | 
9 | CC(NC(=O)c1cnccn1)c1cccc(-c2cccc(OC(F)(F)F)c2)n1 (stereo not shown) [Compound 207] | B (EC1.5 10-25 μM) | > 200
10 | O=C(NC1CCCc2ccc(-c3cccc(C(F)(F)F)c3)nc21)c1ccccn1 (stereo not shown) [Compound 231] | A (EC1.5<10.0 μM) | > 200
11 | O=C(Nc1nc(CN2CCOCC2)cs1)C1CCCc2ccc(-c3cccc(C(F)(F)F)c3)nc21 (stereo not shown) [Compound 294] | A (EC1.5<10.0 μM) | > 200
12 | CC(NC(=O)c1cnccn1)c1cccc(-c2cccc(C(F)(F)F)c2)n1 (stereo not shown) [Compound 204, N-(1-(6-(3-(trifluoromethyl)phenyl)pyridin-2-yl)ethyl)pyrazine-2-carboxamide] | B (EC1.5 10-25 μM) | > 200
13 | O=C(NC1CCCc2ccc(-c3cccc(C(F)(F)F)c3)nc21)c1cccnc1OCC(O)CO (stereo not shown) [Compound 243] | C (EC1.5>25 μM) | 
14 | O=C(Nc1cccc(N2CCOCC2)n1)C1CCOc2ccc(-c3cccc(C(F)(F)F)c3)nc21 (stereo not shown) [Compound 302, N-(6-morpholinopyridin-2-yl)-6-(3-(trifluoromethyl)phenyl)-3,4-dihydro-2H-pyrano[3,2-b]pyridine-4-carboxamide] | C (EC1.5>25 μM) | 
15 | CC(NC(=O)c1cccnc1)c1cccc(-c2cccc(OC(F)(F)F)c2)n1 (stereo not shown) [Compound 218] | C (EC1.5>25 μM) | 
16 | CC(C)c1cccc(-c2cccc(C(C)NC(=O)c3cnccn3)n2)c1 (stereo not shown) [Compound 202] | C (EC1.5>25 μM) | < 200

Row | SMILES | EC1.5 (concentration of test compound that results in 150% activation of SIRT1) | Emax [%]
17 | O=C(NC1CCCc2ccc(-c3cccc(C(F)(F)F)c3)nc21)c1cccc(C2CCNC2)c1 (stereo not shown) [Compound 242] | A (EC1.5<10.0 μM) | > 200
18 | O=C(Nc1cnccn1)C1CCCc2ccc(-c3cccc(C(F)(F)F)c3)nc21 (stereo not shown) [Compound 289] | B (EC1.5 10-25 μM) | < 200
19 | CC(C(=O)Nc1nccs1)c1cccc(-c2cccc(C(F)(F)F)c2)n1 (stereo not shown) [Compound 221] | C (EC1.5>25 μM) | 
20 | Cc1ccnc(NC(=O)C2CCCc3ccc(-c4cccc(C(F)(F)F)c4)nc32)n1 (stereo not shown) [Compound 292] | C (EC1.5>25 μM) | 
21 | CC(NC(=O)c1cccc(CN2CCCC2)n1)c1cccc(-c2cccc(C(F)(F)F)c2)n1 (stereo not shown) [Compound 219] | C (EC1.5>25 μM) | 
22 | Cc1cc(-c2ccc3c(n2)C(NC(=O)c2cnccn2)CCC3)ccn1 (stereo not shown) [Compound 249] | C (EC1.5>25 μM) | 
23 | O=C(NC1CCOc2ccc(-c3cccc(C(F)(F)F)c3)nc21)c1cccc(N2CCOCC2)n1 (stereo not shown) [Compound 222, 6-morpholino-N-(6-(3-(trifluoromethyl)phenyl)-3,4-dihydro-2H-pyrano[3,2-b]pyridin-4-yl)picolinamide] | A (EC1.5<10.0 μM) | > 200
24 | O=C(NC1CCCc2ccc(-c3cccc(C(F)(F)F)c3)nc21)c1cscn1 (stereo not shown) [Compound 205] | C (EC1.5>25 μM) | < 200
25 | O=C(NC1CCCc2ccc(-c3cccc(C(F)(F)F)c3)nc21)c1cccc2c1OC(F)(F)O2 (stereo not shown) [Compound 226] | C (EC1.5>25 μM) | 
26 | O=C(NC1CCCc2ccc(-c3cccnc3O)nc21)c1cnccn1 (stereo not shown) [Compound 257] | C (EC1.5>25 μM) | 
27 | CC(C(=O)Nc1cccnc1)c1cccc(-c2cccc(C(F)(F)F)c2)n1 (stereo not shown) [Compound 210] | C (EC1.5>25 μM) | 
28 | O=C(Nc1ccnc(N2CCCC2)c1)C1CCCc2ccc(-c3cccc(N4CCOCC4)c3)nc21 (stereo not shown) [Compound 278] | A (EC1.5<10.0 μM) | < 200
29 | O=C(NC1CCCc2ccc(-c3cccc(N4CCOCC4)c3)nc21)c1cnccn1 (stereo not shown) [Compound 261] | C (EC1.5>25 μM) | 
30 | O=C(NC1CCCc2ccc(-c3cccc(OC(F)(F)F)c3)nc21)c1cnccn1 (stereo not shown) [Compound 252] | B (EC1.5 10-25 μM) | > 200
31 | O=C(NC1CCCc2ccc(-c3cccc(C(F)(F)F)c3)nc21)c1ccno1 (stereo not shown) [Compound 230] | C (EC1.5>25 μM) | 

— patent publication US20110263564A1, “PYRIDINE, BICYCLIC PYRIDINE AND RELATED ANALOGS AS SIRTUIN MODULATORS” (Sirtris Pharmaceuticals, Inc., priority 2008, published 2011)
